Laboratory results published in patent publication US4620014A, “2-furylbutyrolactones and methods for using same” (priority 1983, dated 1986).
Like-named read-outs stand apart in the source and are kept apart here.

Legend:
[1] = tested on: spleen lymphocytes of BDF1 mice; conditions: 7 days
Experimental: (§1) The purpose of this assay is to challenge lymphocytes in microcultures with one or more polyclonal mitogens at concentrations that will induce mitogenesis within 72 hours of stimulation.
(§2) In the mouse model, spleens are removed from different strains of mice and the spleen cells are teased free and suspended in RPMI-1640 tissue culture medium at a concentration of usually 1×10^7 ml. These cells are dispensed at a concentration of 5.0×10^5 cells per microculture well in a 96 well flat bottom 96 well tissue culture plate. All testing of the compounds of this invention or mitogens are done in replicates of 10. The cells are then treated with PHA, Con-A, specific antigens, or buffer only. If in vitro testing is done, varying concentrations of the compounds of this invention or buffer only are added to the cells as well. After treatment with the mitogens and/or compounds of this invention, the cells are incubated for 72 hours. The response of these cells to mitogens and/or the compounds of this invention is assessed using ^14 C-thymidine labeling on the fourth day at a concentration of 0.01 μCi/well. The labeled cells are harvested using a lymphocyte harvestor and placed onto fibrous paper discs. A scintillation cocktail is added to vials contaning the discs and the results are obtained using a LKB-liquid scintillation counter (Model 1216/Rackbeta II). The data is expressed as a ratio of the cpm of the mitogen stimulated group to the control (non-mitogen) treated group=lymphocyte stimulation index (LSI).
The lymphocyte stimulation assay may be performed directly on spleen cells obtained from various strains of mice not treated with the compounds of this invention or on lymphocytes obtained from […]. […] Alternatively, the mice may be treated in vivo with the compounds of this invention by intraperitoneal multi-dose schedules, followed by sacrifice and harvesting spleen lymphocytes. These cells are then tested for their response to polyclonal mitogens or specific antigens used to immunize the mice. In this sytem however, no additional compound is added to the in vitro lymphocyte stimulation assay system.
Two strains of mice, C57BL/6 and BDF1 are treated for seven days with i.p. administration of either 25, 50, 100, 200, or 400 mg/kg of Cpd. 1 or just buffer. This is followed on the eighth day by a lymphocyte stimulation assay.

[2] = tested on: spleen lymphocytes of KLH-immunized C57BL/6 mice; conditions: for Lymphocyte Stimulation Index, Con-A / Lymphocyte Stimulation Index, Control (no mitogen) / Lymphocyte Stimulation Index, PHA: day 17
Description: The effect of the compounds of this invention on the immune response to specific antigens involves immunization of mice with specific anitgens such as bovine serum albumin (BSA) or keyhole limpet hemocyanin (KLH). Following immunization, it is possible to assess the cell-mediated or humoral (antibody) immune response to these antigens by various methods:
(1) Lymphocyte stimulation assays can be performed using varying concentrations of the specific antigens as mitogens in the lymphocyte stimulation microculture system described above. The only difference is that the incubation period is extended to five days instead of three as for the polyclonal mitogens.
Mice of the C57BL/6 strain are given i.p. injections of either 50, 100, 200 or 400 mg/kg of Cpd. 1 or buffer for ten days (days 1-10). An antigen, keyhole limpet hemocyanin (KLH), is administered intraperitoneally with Freund's Complete Adjuvant (FCA) on days 1, 7, and 13. Blood samples are taken for assay of the antibody response on days 0, 5, 12, and 17. Spleens are removed, lymphocytes isolated and a lymphocyte stimulation assay with PHA, Con-A or KLH antigen as the mitogens is performed on day 17 of the experiment.

[3] = tested on: FLC-745 cells; assay: MLTC assay of CTL activity, FLC-745 target cells; type: cell-based
Description: A mixed lymphocyte tumor culture (MLTC) immunoassay, used to determine the cytotoxic lymphocyte (CTL) activity employs lymphocytes from either immunized (sensitized) mice or DBA/2 tumor dormant state animals in various stages of the tumor dormant state (TDS). The assay employs L5178Y target cells labeled with ^51 Chromium and effector cells (sensitized lymphocytes) from the above-mentioned sources. Effector-target cell ratios will vary with different experimental conditions and may or may not include irradiated stimulator L5178Y cells. Results are expressed as % lysis of target cells based on ratio of cpm of test group over cpm of total release (maximum) both of which are corrected for spontaneous release of ^51 Cr. The assay can be performed as an 8 or 18 hour release assay.
An MLTC assay is performed to assess the CTL activity and tumor target cell specificity of Cpd. 1. Tumor dormant spleen cells and normal spleen cells of DBA/2 mice are used as effector cells. Irradiated L5178Y cells are used as stimulator cells. ^51 Cr-labeled L5178Y cells and FLC-745 cells are used as target cells. The effector/target ratios studied are 100:1, 30:1 and 10:1.

[4] = tested on: human lymphocytes; assay: In vitro lymphocyte stimulation assay in humans; type: cell-based; conditions: PHA and Con-A
Experimental: as §1, §2
The lymphocyte stimulation assay may be performed directly on spleen cells obtained from various strains of mice not treated with the compounds of this invention or on lymphocytes obtained from […]. […] Alternatively, the mice may be treated in vivo with the compounds of this invention by intraperitoneal multi-dose schedules, followed by sacrifice and harvesting spleen lymphocytes. These cells are then tested for their response to polyclonal mitogens or specific antigens used to immunize the mice. […]

Q: Which results are given for `Cc1ccc(C2(O)C(=O)OC3C(O)COC32O)o1.Cc1ccc(C2(O)C(=O)OC3C(O)COC32O)o1.O=C1CCC(=O)O1` (stereo not drawn) [Cpd. 1]?
A: Con-A response ([1]; 400 mg/kg i.p.): slight suppression of the Con-A response; PHA response ([1]; 400 mg/kg i.p.): strong suppression of the PHA response; T-lymphocyte proliferation, PHA ([1]; 50 and 100 mg/kg i.p.): stimulation of T-lymphocyte proliferation; Con-A response ([1]; between 50 and 100 mg/kg i.p.): significantly increased; Lymphocyte Stimulation Index, Con-A ([2]; 50 mg/kg i.p.): 19.0; Lymphocyte Stimulation Index, Control (no mitogen) ([2]; 50 mg/kg i.p.): 0.976; Lymphocyte Stimulation Index, PHA ([2]; 50 mg/kg i.p.): 7.65; Lymphocyte Stimulation Index, KLH ([2]; 50 mg/kg i.p., day 17, KLH 0.025 μg/well): 0.0386; Lymphocyte Stimulation Index, KLH ([2]; 50 mg/kg i.p., day 17, KLH 0.5 μg/well (first 0.5 column)): 0.415; Lymphocyte Stimulation Index, KLH ([2]; 50 mg/kg i.p., day 17, KLH 0.5 μg/well (second 0.5 column)): 0.357; Lymphocyte Stimulation Index, KLH ([2]; 50 mg/kg i.p., day 17, KLH 1.0 μg/well): 0.536; Lymphocyte Stimulation Index, Con-A ([2]; 100 mg/kg i.p.): 15.6; Lymphocyte Stimulation Index, Control (no mitogen) ([2]; 100 mg/kg i.p.): 0.961; Lymphocyte Stimulation Index, PHA ([2]; 100 mg/kg i.p.): 9.12; Lymphocyte Stimulation Index, KLH ([2]; 100 mg/kg i.p., day 17, KLH 0.025 μg/well): 0.401; Lymphocyte Stimulation Index, KLH ([2]; 100 mg/kg i.p., day 17, KLH 0.5 μg/well (first 0.5 column)): 0.734; Lymphocyte Stimulation Index, KLH ([2]; 100 mg/kg i.p., day 17, KLH 0.5 μg/well (second 0.5 column)): 0.526; Lymphocyte Stimulation Index, KLH ([2]; 100 mg/kg i.p., day 17, KLH 1.0 μg/well): 0.898; Lymphocyte Stimulation Index, Con-A ([2]; 200 mg/kg i.p.): 51.7; Lymphocyte Stimulation Index, Control (no mitogen) ([2]; 200 mg/kg i.p.): 1.73; Lymphocyte Stimulation Index, PHA ([2]; 200 mg/kg i.p.): 12.4; Lymphocyte Stimulation Index, KLH ([2]; 200 mg/kg i.p., day 17, KLH 0.025 μg/well): 3.91; Lymphocyte Stimulation Index, KLH ([2]; 200 mg/kg i.p., day 17, KLH 0.5 μg/well (first 0.5 column)): 4.26; Lymphocyte Stimulation Index, KLH ([2]; 200 mg/kg i.p., day 17, KLH 0.5 μg/well (second 0.5 column)): 1.02; Lymphocyte Stimulation Index, KLH ([2]; 200 mg/kg i.p., day 17, KLH 1.0 μg/well): 7.45; lymphocyte DNA synthesis ([2]; 200 mg/kg, day 17, Con-A or KLH): statistically significant increase in lymphocyte DNA synthesis; Lymphocyte Stimulation Index, Con-A ([2]; 400 mg/kg i.p.): 35.5; Lymphocyte Stimulation Index, Control (no mitogen) ([2]; 400 mg/kg i.p.): 0.840; Lymphocyte Stimulation Index, PHA ([2]; 400 mg/kg i.p.): 2.32; Lymphocyte Stimulation Index, KLH ([2]; 400 mg/kg i.p., day 17, KLH 0.025 μg/well): 1.03; Lymphocyte Stimulation Index, KLH ([2]; 400 mg/kg i.p., day 17, KLH 0.5 μg/well (first 0.5 column)): 0.232; Lymphocyte Stimulation Index, KLH ([2]; 400 mg/kg i.p., day 17, KLH 0.5 μg/well (second 0.5 column)): 0.667; Lymphocyte Stimulation Index, KLH ([2]; 400 mg/kg i.p., day 17, KLH 1.0 μg/well): 0.589; % Lysis ([3]; E + D (TDS effector, no stimulator), E/T 10:1): 0.7%; % Lysis ([3]; E + D (TDS effector, no stimulator), E/T 30:1): 4.6%; % Lysis ([3]; E + D (TDS effector, no stimulator), E/T 100:1): 6.6%; % Lysis ([3]; E + S + D (TDS effector, stimulator), E/T 10:1): 0.5%; % Lysis ([3]; E + S + D (TDS effector, stimulator), E/T 30:1): 3.6%; % Lysis ([3]; E + S + D (TDS effector, stimulator), E/T 100:1): 13.4%; enhancement of CTL activity ([3]; FLC-745 target system (Example 28)): not observed; % Lysis ([3]; N + D (normal effector, no stimulator), E/T 10:1): -3.5%; % Lysis ([3]; N + D (normal effector, no stimulator), E/T 30:1): 0.9%; % Lysis ([3]; N + D (normal effector, no stimulator), E/T 100:1): 13.9%; % Lysis ([3]; N + S + D (normal effector, stimulator), E/T 10:1): -1.1%; % Lysis ([3]; N + S + D (normal effector, stimulator), E/T 30:1): -0.8%; % Lysis ([3]; N + S + D (normal effector, stimulator), E/T 100:1): 5.8%; lymphocyte response, very low doses ([4]; 1 and 0.1 μg/ml): markedly increased lymphocyte response; lymphocyte response, high dose ([4]; 100 and 50 μg/ml): high dose anti-proliferative effect
